{
  "source": "patent US5470877A",
  "about": "“Uses of perillic acid methyl ester” (Wisconsin Alumni Research Foundation, priority 1994, dated 1995)",
  "key": {"[1]": {"tested_on": "DMBA-induced rat mammary carcinomas", "test": "Regression of DMBA-induced mammary carcinomas, pair-feeding study", "assay_type": "in vivo, Wistar-Furth rat", "details": "for Time to Regress (wks): primary carcinoma, footnote: Kaplan-Meier estimate of time when 25% regressed", "protocol": "We used Wistar-Furth female rats for in vivo studies. Wistar-Furth female rats were obtained from Harlan Sprague-Dawley, Inc., (Madison, Wis.). All rats, arriving at 43-48 days of age, were housed at four rats per cage in wire-bottom metal cages and all were maintained with a light/dark cycle of 12 hours. Rats were provided Teklad Lab blox chow and acidified water ad libitum.\nAfter one week of acclimation, the carcinogen DMBA was administered to the rats, which were 50-55 days old at this point. The DMBA was dissolved in a stock solution of 20 mg DMBA/ml sesame oil, heated and allowed to cool to room temperature before administration. DMBA (Eastman Kodak, Rochester, N.Y.) was given as a single gastric intubation of 50 mg DMBA/kg rat body weight.\nIn the pair-feeding study, a group of 70 mammals was treated with DMBA. Beginning four weeks post carcinogen administration, mammals were weighed and palpated weekly. Upon palpation of the first mammary carcinoma (diameter≥3 mm), mammals were randomly assigned to control or 2.5% (w/w) perillyl alcohol diet and pair-fed.\nPerillyl alcohol (>96% pure by GC analysis, Aldrich, Milwaukee, Wis.) and Teklad 4% mouse/rat diet meal were thoroughly mixed and stored at -20° C. Fresh diets were made every 7-10 days. All mammals were provided fresh diet daily to minimize evaporation of the monoterpenes. For pair-feeding, the quantity of diet consumed by the monoterpene-fed mammals was measured every 24 hours and the assigned partner was pair-fed accordingly.\nIn the pair-feeding study, all palpable mammary carcinomas were classified as either \"primary\" tumors (i.e, the first tumor(s) palpated with a minimum diameter of 3 mm) or \"secondary\" tumors (i.e. a palpable tumor arising after initial diet assignment). At diet assignment, some mammals had more than one primary tumor. All carcinogen-exposed mammals not bearing a first palpable tumor by week 15 post-carcinogen were removed from the experiment. Complete regression of a tumor was defined as non-palpability for a minimum of three consecutive weeks. All mammals in the pair-feeding study were followed for a minimum of 10 weeks post-diet assignment for tumor growth or regression at primary tumor sites and all other mammary glands. The rats were necropsied if moribund. Complete necropsies were performed on all rats at the termination of the study. Greater than 95% of tumors remaining at the autopsy date were diagnosed as mammary carcinomas based on gross and histopathological criteria."}, "[2]": {"test": "Tolerability in nude mice (National Cancer Institute)", "assay_type": "in vivo", "protocol": "In an extension of our work, the National Cancer Institute has studied the effect of perillyl alcohol doses in nude mice using an oral bid ×14 day schedule. […] Perillyl alcohol was also administered in PEG400 at the same dose levels."}, "[3]": {"tested_on": "21-26 kDa proteins", "test": "Protein isoprenylation inhibition in M600B human mammary epithelial cells", "details": "3 mM", "procedure": "To test whether a specific monoterpene affects isoprenylation of proteins in cells, cell extracts were incubated with a radioactive isoprene precursor and 0-5 mM of the test monoterpene and then subjected to SDS-PAGE. Because they carried a radioactive label, isoprenylated proteins were visualized by fluorography. As a control, cells were incubated without the monoterpene.\nFor both isoprenylation and cell growth assays, the monoterpenes were mixed with prewarmed (37° C.) medium containing 10% calf serum, and then the monoterpene-containing medium was added to cells. The relative effects of various monoterpenes on protein isoprenylation were compared by comparison of the relative intensity of bands on fluorograms from [^14 C]-mevalonate-labelled cells treated with each monoterpene.\nSome fluorograms were analyzed further by densitometry. Where indicated, gels were sliced, dissolved at 50° C. for 3 hours in 0.5 ml of water+0.5 ml of Solvable (Amersham), and then analyzed by scintillation spectrometry in 10 ml of Atom light (Amersham) mixture.\nSamples from each cell line were then analyzed on the same gel."}, "[4]": {"tested_on": "rat mammary carcinoma", "test": "Comparison of dietary perillyl alcohol and perillic acid methyl ester as inducers of rat mammary carcinoma regression", "assay_type": "in vivo, Wistar-Furth rat", "details": "for no regression (tumors) / no response / partial regression >1/2 original diameter (%) / partial regression >1/2 original diameter (tumors) / small regression response / some growth of tumor: 6 weeks", "protocol": "Inbred female Wistar-Furth rats were given 50 mg/kg DMBA at 50-55 days of age. Upon development of a mammary tumor with the largest diameter≥10 mm, the rat was assigned to 0.5% perillic acid methyl ester diet and fed ad libitum. The 0.5% perillic acid methyl ester diet (weight compound/weight ground Teklad rat/mouse 4% meal/chow) was prepared fresh every 7-10 days. Fresh diet was given to rats daily. All rats were weighed and palpated weekly. The study was terminated at 6 weeks after initial diet administration. The following tumor regression data was acquired:\nWe compared the effects of PAME and POH in terms of their ability to regress rat mammary carcinomas. Table 8 records our comparison. In summary, a 0.5% PAME diet was effective, while a 0.5% POH diet was only 10% effective. Diets of 2% POH were roughly 64-70% effective. While 2% POH is tolerated by a mammal, on a practical level PAME is preferred because a lower dose is sufficient."}, "[5]": {"details": "10% limonene diet or 2.5% POH diet"}, "[6]": {"details": "0.5% POH diet, first comparison"}, "[7]": {"details": "1.0% POH diet, first comparison"}, "[8]": {"details": "1.5% POH diet, first comparison"}, "[9]": {"details": "2.0% POH diet, first comparison"}, "[10]": {"details": "2.0% POH diet, second comparison"}},
  "data": [
    {"compound": "C=C(C)[C@@H]1CC=C(CO)CC1", "note": "[perillyl alcohol]", "values": [
      {"measurement": "Primary carcinoma regression (%)", "setting": "[1]; [5]", "result": 81, "unit": "%"},
      {"measurement": "Secondary carcinoma regression (%)", "setting": "[1]; [5]", "result": 0, "unit": "%"},
      {"measurement": "Secondary carcinoma regression (tumors regressed / tumors)", "setting": "[1]; [5]", "result": "01/1"},
      {"measurement": "Secondary carcinomas/rat", "setting": "[1]; [5]", "result": 0.04},
      {"measurement": "development of secondary carcinomas", "setting": "[1]; after initial diet assignment", "result": "limited the development of secondary carcinomas"},
      {"measurement": "Time to Regress (wks)", "setting": "[1]", "result": 3.6, "unit": "wks"},
      {"measurement": "Time to Regress (wks)", "setting": "[1]; listed as POH", "result": "3.6 ± 0.3", "unit": "wks"},
      {"measurement": "amount of perillyl alcohol needed relative to limonene", "setting": "[1]; to achieve these regression results", "result": 25, "unit": "%"},
      {"measurement": "weight loss", "setting": "[2]; 0.5 g/kg/treatment oral bid, sesame oil", "result": "No weight loss"},
      {"measurement": "course of weight loss", "setting": "[2]; 1.0 gram/kg/treatment oral bid, after day 10", "result": "the weight loss leveled off"},
      {"measurement": "average body weight lost", "setting": "[2]; 1.0 gram/kg/treatment oral bid, diluted 1:1 in sesame oil, day 10", "result": 3, "unit": "g"},
      {"measurement": "lethality", "setting": "[2]; in PEG400, same dose levels", "result": "Lethality was observed"},
      {"measurement": "isoprenylation of 21-26 kDa proteins", "setting": "[3]", "result": "inhibited significantly"},
      {"measurement": "no regression (tumors)", "setting": "[4]; [6]", "result": "18/20"},
      {"measurement": "no response", "setting": "[4]; [6]", "result": "1/20"},
      {"measurement": "partial regression >1/2 original diameter (%)", "setting": "[4]; [6]", "result": 10, "unit": "%"},
      {"measurement": "partial regression >1/2 original diameter (tumors)", "setting": "[4]; [6]", "result": "2/20"},
      {"measurement": "small regression response", "setting": "[4]; [6]", "result": "2/20"},
      {"measurement": "some growth of tumor", "setting": "[4]; [6]", "result": "15/20"},
      {"measurement": "no regression (tumors)", "setting": "[4]; [7]", "result": "15/20"},
      {"measurement": "no response", "setting": "[4]; [7]", "result": "2/20"},
      {"measurement": "partial regression >1/2 original diameter (%)", "setting": "[4]; [7]", "result": 25, "unit": "%"},
      {"measurement": "partial regression >1/2 original diameter (tumors)", "setting": "[4]; [7]", "result": "5/20"},
      {"measurement": "small regression response", "setting": "[4]; [7]", "result": "2/20"},
      {"measurement": "some growth of tumor", "setting": "[4]; [7]", "result": "11/20"},
      {"measurement": "no regression (tumors)", "setting": "[4]; [8]", "result": "15/21"},
      {"measurement": "no response", "setting": "[4]; [8]", "result": "7/21"},
      {"measurement": "partial regression >1/2 original diameter (%)", "setting": "[4]; [8]", "result": 29, "unit": "%"},
      {"measurement": "partial regression >1/2 original diameter (tumors)", "setting": "[4]; [8]", "result": "6/21"},
      {"measurement": "small regression response", "setting": "[4]; [8]", "result": "7/21"},
      {"measurement": "some growth of tumor", "setting": "[4]; [8]", "result": "4/21"},
      {"measurement": "no regression (tumors)", "setting": "[4]; [9]", "result": "6/20"},
      {"measurement": "no response", "setting": "[4]; [9]", "result": "1/20"},
      {"measurement": "partial regression >1/2 original diameter (%)", "setting": "[4]; [9]", "result": 70, "unit": "%"},
      {"measurement": "partial regression >1/2 original diameter (tumors)", "setting": "[4]; [9]", "result": "14/20"},
      {"measurement": "small regression response", "setting": "[4]; [9]", "result": "2/20"},
      {"measurement": "some growth of tumor", "setting": "[4]; [9]", "result": "3/20"},
      {"measurement": "no regression (tumors)", "setting": "[4]; [10]", "result": "4/11"},
      {"measurement": "no response", "setting": "[4]; [10]", "result": "2/11"},
      {"measurement": "partial regression >1/2 original diameter (%)", "setting": "[4]; [10]", "result": 64, "unit": "%"},
      {"measurement": "partial regression >1/2 original diameter (tumors)", "setting": "[4]; [10]", "result": "7/11"},
      {"measurement": "small regression response", "setting": "[4]; [10]", "result": "1/11"},
      {"measurement": "some growth of tumor", "setting": "[4]; [10]", "result": "1/11"},
      {"measurement": "effectiveness of diet (%)", "setting": "[4]; 2% POH diets", "result": "64-70%"},
      {"measurement": "weight loss", "setting": "[4]; rats fed PAME or POH diet", "result": "did experience weight loss"},
      {"measurement": "regression rate", "setting": "[4]; rats fed a 1% diet", "result": 55, "unit": "%"}
    ]}
  ]
}
